Source: US11384062B2 (CombiPhos Catalysts, Inc., priority 2017, dated 2022)

Assay: in vitro
Details: for Percent Remaining (%) 60 min: 1 h; for CLint scaled at 0.5 µM: pH 7.4, Clint
Description: Buffer solutions were prepared as follows: • a. Buffer A: 0.1 M monobasic potassium phosphate buffer containing 1.0 mM EDTA. • b. Buffer B: 0.1 M dibasic potassium phosphate buffer containing 1.0 mM EDTA. • c. Buffer C: 0.1 M potassium phosphate buffer containing 1.0 mM EDTA was adjusted to pH 7.4 by titrating 700 mL of Buffer B with Buffer A while monitoring with a pH meter. • 2. An NADPH stock solution (6 mM) was prepared by dissolving NADPH into Buffer C. • 3. Spiking solutions were prepared for the reference compound (ketanserin) and the test compounds as follows: • a. A 500 μM spiking solution of the reference compound (ketanserin) was generated by adding 10 μL of a 10 mM stock solution of ketanserin in DMSO into 190 μL acetonitrile. A 1.5 μM spiking solution in microsomes (0.75 mg/mL) was generated by adding 1.5 μL of the 500 μM spiking solution and 18.75 μL of 20 mg/mL rat liver microsomes into 479.75 μL of Buffer C while cooling with ice. • b. […] A 0.75 μM spiking solution in microsomes (0.75 mg/mL) was generated by adding 1.5 μL of the 250 μM spiking solution and 18.75 μL of 20 mg/mL rat liver microsomes into 479.75 μL of Buffer C while cooling with ice. • 4. 30 μL of 1.5 μM spiking solution containing 0.75 mg/mL microsomes solution was dispensed into assay plates designated for different time points (0 min, 5 min, 15 min, 30 min, and 45 min; or 0 min, 15 min, 30 min, 45 min, and 60 min as shown in Tables 1-5 below) while cooling with ice. • 5. For the 0 min time point assay plate, 135 μL of ACN containing IS followed immediately by 15 μL of the 6 mM NADPH stock solution were added to the wells of the 0 min assay plate. • 6. All assay plates other than the 0 min assay plate were pre-incubated at 37° C. for 5 min, and then 15 μL of the 6 mM NADPH stock solution was added to the wells of the assay plates to start the reaction and timing. At the appropriate time (5 min, 15 min, 30 min, 45 min, or 60 min), 135 μL of ACN containing IS was added to the wells of the corresponding assay plates, respectively, to stop the reaction. • 7. After quenching, the plates were shaken in a vibrator (IKA, MTS 2/4) for 10 min (600 rpm/min) and then centrifuged at 5594 g for 15 min (Thermo Multifuge×3R). • 8. After centrifugation, 50 μL of the supernatant from each well was transferred into a 96-well sample plate containing 50 μL of ultrapure water (Millipore, ZMQS50F01) for LC/MS analysis.

[1] = rat, microsomes, 0 h, 0.5 µM, pH 7.4
[2] = rat, microsomes, 0.25 h, 0.5 µM, pH 7.4
[3] = rat, microsomes, 0.5 h, 0.5 µM, pH 7.4
[4] = rat, microsomes, 0.75 h, 0.5 µM, pH 7.4
[5] = rat, microsomes, 0.5 µM, pH 7.4

[2H]c1c([2H])c(-n2nc3c(C(N)=O)cccc3c2[2H])c([2H])c([2H])c1[C@@H]1CCCNC1 [Example 15, (S)-2-(4-(piperidin-3-yl)phenyl-2,3,5,6-d4)-2H-indazole-3-d-7-carboxamide]
Percent Remaining (%) 0 min [1]: 100.00%
Percent Remaining (%) 15 min [2]: 77.88%
Percent Remaining (%) 30 min [3]: 67.35%
Percent Remaining (%) 45 min [4]: 56.14%
Percent Remaining (%) 60 min [5]: 44.60%
CLint scaled at 0.5 µM (rat, microsomes): 46.4 mL/min/kg
half-life at 0.5 µM (rat, microsomes, pH 7.4, T1/2): 53.5 min

O=C(c1ccc(F)cc1)C1CCN(CCn2c(=O)[nH]c3ccccc3c2=O)CC1 [ketanserin]
Percent Remaining (%) 0 min (rat liver microsomes, 0 min, Table 1 (Example 16)): 100.00%
Percent Remaining (%) 0 min (rat liver microsomes, 0 min, Table 2 (Example 17)): 100%
Percent Remaining (%) 0 min (rat liver microsomes, 0 min, Table 3 (Example 18)): 100.00%
Percent Remaining (%) 0 min (rat liver microsomes, 0 min, Table 4 (Example 19)): 100.00%
Percent Remaining (%) 0 min (rat liver microsomes, 0 min, Table 5 (Example 20)): 100.00%
Percent Remaining (%) 5 min (rat liver microsomes, Table 1 (Example 16)): 65.84%
Percent Remaining (%) 5 min (rat liver microsomes, Table 2 (Example 17)): 94.13%
Percent Remaining (%) 5 min (rat liver microsomes, Table 3 (Example 18)): 78.33%
Percent Remaining (%) 5 min (rat liver microsomes, Table 4 (Example 19)): 78.33%
Percent Remaining (%) 5 min (rat liver microsomes, Table 5 (Example 20)): 82.83%
Percent Remaining (%) 15 min (rat liver microsomes, 15 min, Table 1 (Example 16)): 41.07%
Percent Remaining (%) 15 min (rat liver microsomes, 15 min, Table 2 (Example 17)): 61.07%
Percent Remaining (%) 15 min (rat liver microsomes, 15 min, Table 3 (Example 18)): 45.04%
Percent Remaining (%) 15 min (rat liver microsomes, 15 min, Table 4 (Example 19)): 45.04%
Percent Remaining (%) 15 min (rat liver microsomes, 15 min, Table 5 (Example 20)): 51.29%
Percent Remaining (%) 30 min (rat liver microsomes, 30 min, Table 1 (Example 16)): 17.68%
Percent Remaining (%) 30 min (rat liver microsomes, 30 min, Table 2 (Example 17)): 32.18%
Percent Remaining (%) 30 min (rat liver microsomes, 30 min, Table 3 (Example 18)): 21.55%
Percent Remaining (%) 30 min (rat liver microsomes, 30 min, Table 4 (Example 19)): 21.55%
Percent Remaining (%) 30 min (rat liver microsomes, 30 min, Table 5 (Example 20)): 25.82%
Percent Remaining (%) 45 min (rat liver microsomes, 45 min, Table 1 (Example 16)): 9.13%
Percent Remaining (%) 45 min (rat liver microsomes, 45 min, Table 2 (Example 17)): 21.24%
Percent Remaining (%) 45 min (rat liver microsomes, 45 min, Table 3 (Example 18)): 10.67%
Percent Remaining (%) 45 min (rat liver microsomes, 45 min, Table 4 (Example 19)): 10.67%
Percent Remaining (%) 45 min (rat liver microsomes, 45 min, Table 5 (Example 20)): 15.08%
CLint scaled at 0.5 µM (rat, pooled rat liver microsomes, rat liver microsomes, Table 1 (Example 16)): 188 mL/min/kg
CLint scaled at 0.5 µM (rat, pooled rat liver microsomes, rat liver microsomes, Table 2 (Example 17)): 142 mL/min/kg
CLint scaled at 0.5 µM (rat, pooled rat liver microsomes, rat liver microsomes, Table 3 (Example 18)): 179 mL/min/kg
CLint scaled at 0.5 µM (rat, pooled rat liver microsomes, rat liver microsomes, Table 4 (Example 19)): 179 mL/min/kg
CLint scaled at 0.5 µM (rat, pooled rat liver microsomes, rat liver microsomes, Table 5 (Example 20)): 154 mL/min/kg
half-life at 0.5 µM (rat, pooled rat liver microsomes, pH 7.4, T1/2, rat liver microsomes, Table 1 (Example 16)): 13.2 min
half-life at 0.5 µM (rat, pooled rat liver microsomes, pH 7.4, T1/2, rat liver microsomes, Table 2 (Example 17)): 17.5 min
half-life at 0.5 µM (rat, pooled rat liver microsomes, pH 7.4, T1/2, rat liver microsomes, Table 3 (Example 18)): 13.9 min
half-life at 0.5 µM (rat, pooled rat liver microsomes, pH 7.4, T1/2, rat liver microsomes, Table 4 (Example 19)): 13.9 min
half-life at 0.5 µM (rat, pooled rat liver microsomes, pH 7.4, T1/2, rat liver microsomes, Table 5 (Example 20)): 16.1 min

[2H]C1NC([2H])C([2H])(c2ccc(-n3cc4cccc(C(N)=O)c4n3)cc2)C([2H])C1[2H] (centres unmarked) [Example 5, 2-(4-(piperidin-3-yl-2,3,4,5,6-d5)phenyl)-2H-indazole-7-carboxamide]
Percent Remaining (%) 0 min [1]: 100.00%
Percent Remaining (%) 15 min [2]: 108.00%
Percent Remaining (%) 30 min [3]: 89.02%
Percent Remaining (%) 45 min [4]: 81.33%
Percent Remaining (%) 60 min [5]: 80.31%
CLint scaled at 0.5 µM (rat, microsomes): 17.2 mL/min/kg
half-life at 0.5 µM (rat, microsomes, pH 7.4, T1/2): 144 min

[2H]c1c([2H])c(-n2cc3cccc(C(N)=O)c3n2)c([2H])c([2H])c1C1CCCNC1 (centres unmarked) [Example 8, 2-(4-(piperidin-3-yl)phenyl-2,3,5,6-d4)-2H-indazole-7-carboxamide]
Percent Remaining (%) 0 min [1]: 100.00%
Percent Remaining (%) 15 min [2]: 91.49%
Percent Remaining (%) 30 min [3]: 79.13%
Percent Remaining (%) 45 min [4]: 80.74%
Percent Remaining (%) 60 min [5]: 56.02%
CLint scaled at 0.5 µM (rat, microsomes): 30.7 mL/min/kg
half-life at 0.5 µM (rat, microsomes, pH 7.4, T1/2): 81 min
